Measurements taken from US20090016990A1, “Antimicrobial Compositions” (priority 2007, published 2009).

Columns and labels:
[1] = test system: Pseudomonas aeruginosa ATCC 27853; experiment: MBEC assay, biofilm elimination, MBEC bioFILM PA panel; format: cell-based; set-up: MBEC-Biofilm Elimination, Without compound 2 / MBEC-Biofilm Elimination, With 0.01% compound 2 in 5% EtOH/PBS / MBEC-Biofilm Elimination, Without compound 7 / MBEC-Biofilm Elimination, With 0.01% compound 7 in 5% EtOH/PBS / MBEC-Biofilm Elimination, Without compound 1 / MBEC-Biofilm Elimination, With 0.01% compound 1 in 5% EtOH/PBS / MBEC-Biofilm Elimination, without salt of compound 2 / MBEC-Biofilm Elimination, with 0.1% salt of compound 2: unit not given here; conditions: for MBEC-Biofilm Elimination, without salt of compound 2 / MBEC-Biofilm Elimination, with 0.1% salt of compound 2: Table 9; for MBEC-Biofilm Elimination, without salt of compound 2 / MBEC-Biofilm Elimination, without salt of compound 6: antibiotic or antibiotic combination alone; for MBEC-Biofilm Elimination, without salt of compound 2 / MBEC-Biofilm Elimination, with 0.1% salt of compound 2 / MBEC-Biofilm Elimination, without salt of compound 6 / MBEC-Biofilm Elimination, with 0.1% salt of compound 6: value per component; for MBEC-Biofilm Elimination, with 0.1% salt of compound 2: antibiotic or combination plus 0.1% salt of compound 2; for MBEC-Biofilm Elimination, without salt of compound 6 / MBEC-Biofilm Elimination, with 0.1% salt of compound 6: Table 10; for MBEC-Biofilm Elimination, with 0.1% salt of compound 6: antibiotic or combination plus 0.1% salt of compound 6; for MBEC-Biofilm Elimination, Without compound 1 / MBEC-Biofilm Elimination, Without compound 2 / MBEC-Biofilm Elimination, Without compound 3 / MBEC-Biofilm Elimination, Without compound 6 / MBEC-Biofilm Elimination, Without compound 7 / MBEC-Biofilm Elimination, Without compound 9: antibiotic alone
[2] = test system: Pseudomonas aeruginosa ATCC 27853; experiment: MBEC assay, biofilm inhibition (prevention of biofilm formation), MBEC bioFILM PA panel; format: cell-based; set-up: MBEC-Biofilm Inhibition, Without compound 9 / MBEC-Biofilm Inhibition, Without compound 6 / MBEC-Biofilm Inhibition, Without compound 2 / MBEC-Biofilm Inhibition, Without compound 7 / MBEC-Biofilm Inhibition, With 0.01% compound 7 in 5% EtOH/PBS / MBEC-Biofilm Inhibition, without salt of compound 2 / MBEC-Biofilm Inhibition, with 0.1% salt of compound 2 / MBEC-Biofilm Inhibition, without salt of compound 6: unit not given here; conditions: for MBEC-Biofilm Inhibition, without salt of compound 2 / MBEC-Biofilm Inhibition, with 0.1% salt of compound 2: Table 9; for MBEC-Biofilm Inhibition, without salt of compound 2 / MBEC-Biofilm Inhibition, without salt of compound 6: antibiotic or antibiotic combination alone; for MBEC-Biofilm Inhibition, without salt of compound 2 / MBEC-Biofilm Inhibition, with 0.1% salt of compound 2 / MBEC-Biofilm Inhibition, without salt of compound 6 / MBEC-Biofilm Inhibition, with 0.1% salt of compound 6: value per component; for MBEC-Biofilm Inhibition, without salt of compound 2: separated by /; for MBEC-Biofilm Inhibition, with 0.1% salt of compound 2: antibiotic or combination plus 0.1% salt of compound 2; for MBEC-Biofilm Inhibition, without salt of compound 6 / MBEC-Biofilm Inhibition, with 0.1% salt of compound 6: Table 10; for MBEC-Biofilm Inhibition, with 0.1% salt of compound 6: antibiotic or combination plus 0.1% salt of compound 6; for MBEC-Biofilm Inhibition, Without compound 1 / MBEC-Biofilm Inhibition, Without compound 2 / MBEC-Biofilm Inhibition, Without compound 3 / MBEC-Biofilm Inhibition, Without compound 6 / MBEC-Biofilm Inhibition, Without compound 7 / MBEC-Biofilm Inhibition, Without compound 9: antibiotic alone; for MBEC: antibiotic or combination alone, concentrations in order of the combination; for MBEC, μg/mL +Compound 1: antibiotic plus Compound 1; for MBEC, μg/mL +Compound 2: antibiotic plus Compound 2; for MBEC, μg/mL +Compound 7: antibiotic plus Compound 7; for MBEC-Biofilm Inhibition, With 0.01% compound 2 in 5% EtOH/PBS / value in parentheses after MBEC-Biofilm Inhibition with 0.01% compound 2 (% reduction as in Table 2): with 0.01% compound 2 in 5% EtOH/PBS
[3] = reduction of antibiotic or combination required to prevent biofilm formation
[4] = with 0.01% compound 1 in 5% EtOH/PBS

SMILES | MBEC-Biofilm Elimination, without salt of compound 2 [1] | MBEC-Biofilm Elimination, with 0.1% salt of compound 2 [1] | MBEC-Biofilm Elimination, without salt of compound 6 [1] | MBEC-Biofilm Elimination, with 0.1% salt of compound 6 [1] | MBEC-Biofilm Elimination, Without compound 1 [1] | MBEC-Biofilm Elimination, Without compound 2 [1] | MBEC-Biofilm Elimination, Without compound 3 [1] | MBEC-Biofilm Elimination, Without compound 6 [1] | MBEC-Biofilm Elimination, Without compound 7 [1] | MBEC-Biofilm Elimination, Without compound 9 [1] | MBEC-Biofilm Elimination, With 0.01% compound 1 in 5% EtOH/PBS [1] | MBEC-Biofilm Elimination, With 0.01% compound 2 in 5% EtOH/PBS [1] | MBEC-Biofilm Elimination, With 0.01% compound 7 in 5% EtOH/PBS [1] | MBEC-Biofilm Elimination, With 0.05% compound 3 in 5% EtOH/PBS [1] | MBEC-Biofilm Elimination, With 0.05% compound 6 in 5% EtOH/PBS [1] | MBEC-Biofilm Inhibition, without salt of compound 2 [2] | MBEC-Biofilm Inhibition, with 0.1% salt of compound 2 [2] | MBEC-Biofilm Inhibition, without salt of compound 6 [2] | MBEC-Biofilm Inhibition, with 0.1% salt of compound 6 [2] | MBEC-Biofilm Inhibition, Without compound 1 [2] | further results
NCC[C@H](O)C(=O)N[C@@H]1C[C@H](N)[C@@H](O[C@H]2O[C@H](CN)[C@@H](O)[C@H](O)[C@H]2O)[C@H](O)[C@H]1O[C@H]1O[C@H](CO)[C@@H](O)[C@H](N)[C@H]1O [AK, amikacin] | >8 | 8 | >8 | 8 | >8 | >8 | >8 | >8 | >8 | >8 | >8 | 8 | 8 | >8 | >8 | >8 | >8 | >8 | >8 | >8 | MBEC-Biofilm Elimination, With 0.1% w/v compound 9 in PBS [1]: >8; MBEC-Biofilm Inhibition, Without compound 2 [2]: >8; MBEC-Biofilm Inhibition, Without compound 3 [2]: >8; MBEC-Biofilm Inhibition, Without compound 6 [2]: >8; MBEC-Biofilm Inhibition, Without compound 7 [2]: >8; MBEC-Biofilm Inhibition, Without compound 9 [2]: >8; MBEC [2]: >8 µg/mL; MBEC, μg/mL +Compound 1 [2]: >8 µg/mL; MBEC, μg/mL +Compound 2 [2]: >8 µg/mL; MBEC, μg/mL +Compound 7 [2]: 2 to 8 µg/mL; (% reduction) +Compound 7 [2, 3]: > 50%; MBEC-Biofilm Inhibition, With 0.01% compound 1 in 5% EtOH/PBS [2, 4]: >8; MBEC-Biofilm Inhibition, With 0.01% compound 2 in 5% EtOH/PBS [2]: 2-8; value in parentheses after MBEC-Biofilm Inhibition with 0.01% compound 2 (% reduction as in Table 2) [2]: ≥ 50; MBEC-Biofilm Inhibition, With 0.01% compound 7 in 5% EtOH/PBS [2]: >8; MBEC-Biofilm Inhibition, With 0.05% compound 3 in 5% EtOH/PBS [2]: >8; MBEC-Biofilm Inhibition, With 0.05% compound 6 in 5% EtOH/PBS [2]: >8; MBEC-Biofilm Inhibition, With 0.1% w/v compound 9 in PBS [2]: >8
C[C@H]1[C@H](NC(=O)/C(=N\OC(C)(C)C(=O)O)c2csc(N)n2)C(=O)N1S(=O)(=O)O [AZT, astreonam] | >4 | >4 | >4 | >4 | >4 | >4 | >4 | >4 | >4 | >4 | >4 | >4 | >4 | >4 | >4 | >4 | >4 | >4 | >4 | >4 | MBEC-Biofilm Elimination, With 0.1% w/v compound 9 in PBS [1]: >4; MBEC-Biofilm Inhibition, Without compound 2 [2]: >4; MBEC-Biofilm Inhibition, Without compound 3 [2]: >4; MBEC-Biofilm Inhibition, Without compound 6 [2]: >4; MBEC-Biofilm Inhibition, Without compound 7 [2]: >4; MBEC-Biofilm Inhibition, Without compound 9 [2]: >4; MBEC-Biofilm Inhibition, With 0.01% compound 1 in 5% EtOH/PBS [2, 4]: >4; MBEC-Biofilm Inhibition, With 0.01% compound 2 in 5% EtOH/PBS [2]: >4; MBEC-Biofilm Inhibition, With 0.01% compound 7 in 5% EtOH/PBS [2]: >4; MBEC-Biofilm Inhibition, With 0.05% compound 3 in 5% EtOH/PBS [2]: >4; MBEC-Biofilm Inhibition, With 0.05% compound 6 in 5% EtOH/PBS [2]: >4; MBEC-Biofilm Inhibition, With 0.1% w/v compound 9 in PBS [2]: >4
O=C(N[C@H](CO)[C@H](O)c1ccc([N+](=O)[O-])cc1)C(Cl)Cl [C, chloramphenicol] | >4 | >4 | >4 | >4 | >4 | >4 | >4 | >4 | >4 | >4 | >4 | >4 | >4 | >4 | >4 | >4 | >4 | >4 | >4 | >4 | MBEC-Biofilm Elimination, With 0.1% w/v compound 9 in PBS [1]: >4; MBEC-Biofilm Inhibition, Without compound 2 [2]: >4; MBEC-Biofilm Inhibition, Without compound 3 [2]: >4; MBEC-Biofilm Inhibition, Without compound 6 [2]: >4; MBEC-Biofilm Inhibition, Without compound 7 [2]: >4; MBEC-Biofilm Inhibition, Without compound 9 [2]: >4; MBEC-Biofilm Inhibition, With 0.01% compound 1 in 5% EtOH/PBS [2, 4]: >4; MBEC-Biofilm Inhibition, With 0.01% compound 2 in 5% EtOH/PBS [2]: >4; MBEC-Biofilm Inhibition, With 0.01% compound 7 in 5% EtOH/PBS [2]: >4; MBEC-Biofilm Inhibition, With 0.05% compound 3 in 5% EtOH/PBS [2]: >4; MBEC-Biofilm Inhibition, With 0.05% compound 6 in 5% EtOH/PBS [2]: >4; MBEC-Biofilm Inhibition, With 0.1% w/v compound 9 in PBS [2]: >4
CC(C)(O/N=C(\C(=O)N[C@@H]1C(=O)N2C(C(=O)[O-])=C(C[n+]3ccccc3)CS[C@H]12)c1csc(N)n1)C(=O)O [CAZ, ceftazidime] | >4 | >4 | >4 | >4 | >4 | >4 | >4 | >4 | >4 | >4 | >4 | >4 | >4 | >4 | >4 | >4 | >4 | >4 | >4 | >4 | MBEC-Biofilm Elimination, With 0.1% w/v compound 9 in PBS [1]: >4; MBEC-Biofilm Inhibition, Without compound 2 [2]: >4; MBEC-Biofilm Inhibition, Without compound 3 [2]: >4; MBEC-Biofilm Inhibition, Without compound 6 [2]: >4; MBEC-Biofilm Inhibition, Without compound 7 [2]: >4; MBEC-Biofilm Inhibition, Without compound 9 [2]: >4; MBEC-Biofilm Inhibition, With 0.01% compound 1 in 5% EtOH/PBS [2, 4]: >4; MBEC-Biofilm Inhibition, With 0.01% compound 2 in 5% EtOH/PBS [2]: >4; MBEC-Biofilm Inhibition, With 0.01% compound 7 in 5% EtOH/PBS [2]: >4; MBEC-Biofilm Inhibition, With 0.05% compound 3 in 5% EtOH/PBS [2]: >4; MBEC-Biofilm Inhibition, With 0.05% compound 6 in 5% EtOH/PBS [2]: >4; MBEC-Biofilm Inhibition, With 0.1% w/v compound 9 in PBS [2]: >4
O=C(O)c1cn(C2CC2)c2cc(N3CCNCC3)c(F)cc2c1=O [CP, ciprofloxacin] | >0.5 | 0.5 | >0.5 | >0.5 | >0.5 | >0.5 | >0.5 | >0.5 | >0.5 | >0.5 | >0.5 | >0.5 | >0.5 | >0.5 | >0.5 | >0.5 | >0.5 | >0.5 | >0.5 | >0.5 | MBEC-Biofilm Inhibition, Without compound 2 [2]: >0.5; MBEC-Biofilm Inhibition, Without compound 3 [2]: >0.5; MBEC-Biofilm Inhibition, Without compound 6 [2]: >0.5; MBEC-Biofilm Inhibition, Without compound 7 [2]: >0.5; MBEC-Biofilm Inhibition, Without compound 9 [2]: 0.5; MBEC [2]: >0.5 µg/mL; MBEC, μg/mL +Compound 1 [2]: 0.5 µg/mL; MBEC, μg/mL +Compound 2 [2]: >0.5 µg/mL; MBEC, μg/mL +Compound 7 [2]: 0.5 µg/mL; (% reduction) +Compound 1 [2, 3]: > 50%; (% reduction) +Compound 7 [2, 3]: > 50%; MBEC-Biofilm Inhibition, With 0.01% compound 1 in 5% EtOH/PBS [2, 4]: 0.5; value in parentheses after MBEC-Biofilm Inhibition with 0.01% compound 1 (% reduction as in Table 2) [2, 4]: ≥ 50; MBEC-Biofilm Inhibition, With 0.01% compound 2 in 5% EtOH/PBS [2]: 0.5; value in parentheses after MBEC-Biofilm Inhibition with 0.01% compound 2 (% reduction as in Table 2) [2]: ≥ 50; MBEC-Biofilm Inhibition, With 0.01% compound 7 in 5% EtOH/PBS [2]: >0.5; MBEC-Biofilm Inhibition, With 0.05% compound 3 in 5% EtOH/PBS [2]: >0.5; MBEC-Biofilm Inhibition, With 0.05% compound 6 in 5% EtOH/PBS [2]: >0.5
